Test results taken from paper PMC9327782, “Benzoxazole derivatives as new VEGFR-2 inhibitors and apoptosis inducers: design, synthesis, in silico studies, and antiproliferative evaluation” (Journal of Enzyme Inhibition and Medicinal Chemistry, 2022).
Read-outs that look alike come from different tables or passages of the source.

Key:
Type in all cases: cell-based, human
Bcl-2 = assay: Western blot, Bcl-2 level in HepG2 cells; conditions: HepG2, 24 h
Procedure: Compound 12lwas subjected to further cellular mechanistic study. The cellular levels of BAX and Bcl-2 were measured using the western blot technique after compound 12l was applied to HepG2 cells for 24 h.
The western blot technique was applied in accordance with the comprehensive description in Supplementary data[38–40] […]
The proteins expression of cleaved caspase‐3, BAX, and Bcl‐2 were determined using Western blot analysis. In brief, HepG2 cells were treated with control, or with the synthesized compounds.
Then cells were lysed in 250 μL precold lysis buffer (pH 7.4: Tris‐Base [10 mM], NaCl [100 mM], ethylenediaminetetraacetic acid [EDTA, 25 mM], ethylene glycol bis (2‐aminoethyl) tetraacetic acid [EGTA, 25 mM], 1% [v/v] NP‐40, and 1% [v/v] Triton X‐100) supplemented with 1:350 protease:phosphatase inhibitors cocktail (Sigma). The cells were immediately frozen at −20°C for 1.5 hours for further lysis, collected by cell scraper, sonicated 3 × 10 seconds, and centrifuged (13000 rpm, 15 minutes). Total protein concentrations in the supernatant were determined colorimetrically using the Pierce 660 nm Protein Assay method (Thermo Fisher Scientific, Rockford, IL), with BSA as the standard. […]

HepG2 cells = assay: Flow cytometry cell cycle analysis (PI staining); conditions: HepG2, 10.50 µM, 24 h
Procedure: Compound 12I, achieved notable cytotoxic and VEGFR-2 inhibitory potencies was further studied mechanistically for cell cycle progression and induction of apoptosis in HepG2 cells. Cell cycle process was analysed after exposure of HepG2 cells to 12I with a concentration of 10.50 µM for 24 h.
This assay was applied using propidium iodide (PI) staining in accordance with the comprehensive description in Supplementary data[34]^,[35] […]
3. Flow cytometry analysis for cell cycle
To determine the role of the synthesized compounds in cell cycle distribution, cell cycle analysis was performed using propidium iodide (PI) staining and flow cytometry analysis for compound
12l. Flow Cytometry Kit for Cell Cycle Analysis (ab139418_Propidium Iodide Flow Cytometry Kit/BD) was used in this test. HepG2 cells were treated with compound 12l (10.50 µM) for 24 h.
Then, the cells were fixed in 70% ethanol at 4 °C for 12 h. After that, the cells were washed with cold PBS, incubated with 100 μl RNase A at 37 °C for 30 min, and stained with 400 μl PI in the dark at room temperature for further 30 min. The stained cells were measured using Epics XL-MCL™ Flow Cytometer (Beckman Coulter), and the data were analyzed using Flowing software (version 2.5.1, Turku Centre for Biotechnology, Turku, Finland) .

HepG2 cell line = assay: In vitro anti-proliferative MTT assay, HepG2; conditions: Homo sapiens
Source text: (§1) The cytotoxicity results were obtained as median growth inhibitory concentration (IC50).
(§2) MTT assay protocol. This method was applied in accordance with the comprehensive description in Supplementary data. […]
(§3) 5 Raw data of cytotoxity and VEGFR -2 assay […]
(§4) Experimental of biological testing
(§5) 1. In vitro anti-proliferative activity
(§6) MTT assay protocol was applied to assess the anti-proliferative activity of the synthesized compounds. Two human cancer cell lines (MCF-7 and HepG-2) and one normal cell line (WI-38) were used in this test. At first, the cell lines were cultured in RPMI -1640 medium with 10% fetal bovine serum. Antibiotics (100 units/ml penicillin and100 µg/ml streptomycin ) were added at 37 °C in a 5% CO2 incubator. The cell lines were seeded in a 96-well plate at a density of 1.0 x 10^4 cells / well at 37 °C for 24 h under 5% CO2. After incubation, the cells were treated with different […]
(§7) concentration of the synthesized compounds and incubated for 24 h. After 24 h of drug treatment, 20 µl of MTT solution at 5mg/ml was added and incubated for 4 h. Dimethyl sulfoxide (DMSO) in volume of 100 µl was added into each well to dissolve the purple formazan formed. The colorimetric assay was measured and recorded at absorbance of 570 nm using a plate reader (EXL 800, USA). The relative cell viability in percentage was calculated as (A570 of treated samples/A570 of untreated sample) X 100. […]

MCF-7 cell line = assay: In vitro anti-proliferative MTT assay, MCF-7; conditions: Homo sapiens
Source text: as §1, §2, §3, §4, §5, §6, §7

IC50 (HepG2 cell line; HepG2, 24 h, MTT, 24 h treatment, mean of three experiments, read-out: In vitro IC50 HepG2): 10.5 ± 0.8 µM
IC50 (HepG2 cell line; HepG2, supplement raw data, dose-response curve fit, read-out: LogIC50 best-fit value, HepG2 (converted)): 10.5 µM
IC50 (MCF-7 cell line; MCF7, 24 h, MTT, 24 h treatment, mean of three experiments, read-out: In vitro IC50 MCF-7): 15.2 ± 1.1 µM
IC50 (MCF-7 cell line; MCF7, supplement raw data, dose-response curve fit, read-out: LogIC50 best-fit value, MCF-7 (converted)): 15.2 µM
SMILES: Cc1ccc2oc(SCC(=O)Nc3ccc(C(=O)Nc4cccc(Cl)c4)cc3)nc2c1 [Compound 12l, N-(3-Chlorophenyl)-4–(2-((5-methylbenzo[d]oxazol-2-yl)thio)acetamido)benzamide]
Protein expression (normalized to β-actin) Bcl-2 (Bcl-2; control = 1.00): 0.47 ± 0.05
Bcl-2 level decrease (Bcl-2; versus control): 2.12 fold
Cell cycle distribution %S (HepG2 cells): 38.68%
Cell cycle distribution % G2/M (HepG2 cells; listed as 12I): 32.10%
Cell cycle distribution %Sub-G1 (Pre-G1) (HepG2 cells; listed as 12I): 0.79%
Cell cycle distribution % G2/M (HepG2 cells; listed as 12 l): 32.10 ± 181 %
Cell cycle distribution %G1 (HepG2 cells; listed as 12 l): 28.43 ± 0.37 %
Cell cycle distribution %S (HepG2 cells; listed as 12 l): 38.68 ± 1.81 %
Cell cycle distribution %Sub-G1 (Pre-G1) (HepG2 cells; listed as 12 l): 0.79 ± 0.25%
